This experiment deals with human full length recombinant Mps-1 kinase (Homo sapiens (Human), UniProt P33981). Description: Mps-1 Kinase Assay (TR-FRET). Conditions: 10 μM ATP, 1 μM biotinylated peptide substrate, 60 min at 22° C., read-out: Mps-1 Inhibition, IC50 in M. It is filed as biochemical. As to the method:
The human kinase Mps-1 phosphorylates a biotinylated substrate peptide. Detection of the phosphorylated product is achieved by time-resolved fluorescence resonance energy transfer (TR-FRET) from Europium-labelled anti-phospho-Serine/Threonine antibody as donor to streptavidin labelled with cross-linked allophycocyanin (SA-XLent) as acceptor. Compounds are tested for their inhibition of the kinase activity.
N-terminally GST-tagged human full length recombinant Mps-1 kinase (purchased from Invitrogen, Karslruhe, Germany, cat. no PV4071) was used. As substrate for the kinase reaction a biotinylated peptide of the amino-acid sequence […] (C-terminus in amide form, purchased from Biosynthan GmbH, Berlin) was used.
The concentration of Mps-1 in the assay was adjusted to the activity of the enzyme lot and was chosen appropriate to have the assay in the linear range, typical enzyme concentrations were in the range of about 1 nM (final conc. in the 5 μl assay volume).
The resulting mixture was incubated 1 h at 22° C. to allow the binding of the phosphorylated peptide to the anti-phospho(Ser/Thr)-Europium-antibody. Subsequently the amount of phosphorylated substrate was evaluated by measurement of the resonance energy transfer from the Europium-labelled anti-phospho(Ser/Thr) antibody to the Streptavidin-XLent.
For orientation: Time-resolved FRET reads energy transfer from a long-lived donor to a nearby acceptor.

The structures appear in SMILES notation.

Usually IC50 stands for the midpoint of a concentration-inhibition curve.

Sequence of human full length recombinant Mps-1 kinase (P33981 whole entry): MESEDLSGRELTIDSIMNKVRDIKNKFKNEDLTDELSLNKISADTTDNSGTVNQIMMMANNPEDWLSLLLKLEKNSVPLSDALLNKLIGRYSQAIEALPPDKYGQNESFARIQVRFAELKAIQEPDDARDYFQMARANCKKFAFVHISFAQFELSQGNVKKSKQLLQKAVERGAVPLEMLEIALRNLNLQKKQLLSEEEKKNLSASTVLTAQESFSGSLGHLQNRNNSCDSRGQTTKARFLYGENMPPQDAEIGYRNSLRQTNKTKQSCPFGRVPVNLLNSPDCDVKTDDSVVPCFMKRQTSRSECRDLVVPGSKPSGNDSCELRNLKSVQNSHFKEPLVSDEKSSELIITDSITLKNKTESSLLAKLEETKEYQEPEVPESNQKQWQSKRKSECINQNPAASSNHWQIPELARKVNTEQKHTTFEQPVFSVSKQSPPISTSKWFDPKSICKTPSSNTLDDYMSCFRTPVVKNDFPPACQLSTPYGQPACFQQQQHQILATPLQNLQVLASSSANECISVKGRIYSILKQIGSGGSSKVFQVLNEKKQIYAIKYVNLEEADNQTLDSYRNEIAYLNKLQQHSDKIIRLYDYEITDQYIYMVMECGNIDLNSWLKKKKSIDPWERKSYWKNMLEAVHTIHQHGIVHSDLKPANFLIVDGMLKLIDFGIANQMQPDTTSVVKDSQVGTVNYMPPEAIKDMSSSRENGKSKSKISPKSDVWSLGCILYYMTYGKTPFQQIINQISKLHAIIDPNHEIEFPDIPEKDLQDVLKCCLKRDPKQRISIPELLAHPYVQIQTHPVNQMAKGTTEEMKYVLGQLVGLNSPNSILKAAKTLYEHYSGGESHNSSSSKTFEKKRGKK

Regarding `O=C(NCC1CC1)c1ccc(-c2ccc3nc(Nc4ccc(C(=O)N5CCOCC5)cc4OCC(F)(F)F)nn3c2)cc1` [Example 03.06, N-(cyclopropylmethyl)-4-(2-{[4-(morpholin-4-ylcarbonyl)-2-(2,2,2-trifluoroethoxy)phenyl]amino}[,2]-triazolo[1,5-a]pyridin-6-yl)benzamide], the IC50 was no more than 1 nM. For `COc1cc(C(=O)N2CC3(COC3)C2)ccc1Nc1nc2ccc(-c3ccc(C(=O)NCC4CC4)cc3)cn2n1` [Example 03.07, N-(cyclopropylmethyl)-4-(2-{[2-methoxy-4-(2-oxa-6-azaspiro[3.3]hept-6-ylcarbonyl)phenyl]amino}[,2]triazolo[1,5-a]pyridin-6-yl)benzamide] the value was no more than 1 nM; for `COc1cc(C(=O)N2CCOCC2)ccc1Nc1nc2ccc(-c3ccc(C(=O)NCc4ccc(F)cc4)cc3)cn2n1` [Example 04.01, N-(4-Fluorbenzyl)-4-(2-{[2-methoxy-4-(morpholin-4-ylcarbonyl)phenyl]amino}[,2]-triazolo[1,5-a]pyridin-6-yl)benzamid], no more than 1 nM; for `CCOc1cc(C(=O)N2CCOCC2)ccc1Nc1nc2ccc(-c3ccc(C(=O)NCc4ccc(F)cc4)cc3)cn2n1` [Example 04.02, 4-(2-{[2-Ethoxy-4-(morpholin-4-ylcarbonyl)phenyl]amino}[,2]-triazolo[1,5-a]pyridin-6-yl)-N-(4-fluorbenzyl)benzamid], no more than 1 nM. As for `COc1cc(N2CCOC2=O)ccc1Nc1nc2ccc(-c3ccc(C(=O)NCc4ccc(F)cc4)cc3)cn2n1` [Example 04.03, N-(4-fluorobenzyl)-4-(2-{[2-methoxy-4-(2-oxo-1,3-oxazolidin-3-yl)phenyl]amino}[,2]-triazolo[1,5-a]pyridin-6-yl)benzamide], the figure is no more than 1 nM. For `CCOc1cc(N2CCOC2=O)ccc1Nc1nc2ccc(-c3ccc(C(=O)NCc4ccc(F)cc4)cc3)cn2n1` [Example 04.04, 4-(2-{[2-ethoxy-4-(2-oxo-1,3-oxazolidin-3-yl)phenyl]amino}[,2]triazolo[1,5-a]pyridin-6-yl)-N-(4-fluorobenzyl)benzamide] the value was no more than 1 nM.

Take `COc1cc(C2=NCCO2)ccc1Nc1nc2ccc(-c3ccc(C(=O)NCc4ccc(F)cc4)cc3)cn2n1` [Example 04.05, 4-(2-{[4-(4,5-dihydro-1,3-oxazol-2-yl)-2-methoxyphenyl]amino}[,2]-triazolo[1,5-a]pyridin-6-yl)-N-(4-fluorobenzyl)benzamide]: the half-inhibitory concentration (IC50) is no more than 1 nM. As for `COc1cc(C(=O)N2C[C@@H]3C[C@H]2CO3)ccc1Nc1nc2ccc(-c3ccc(C(=O)NCc4ccc(F)cc4)cc3)cn2n1` [Example 04.06, N-(4-fluorobenzyl)-4-[2-({2-methoxy-4-[(1S,4S)-2-oxa-5-azabicyclo[2.2.1]hept-5-ylcarbonyl]phenyl}amino)[,2]triazolo[1,5-a]pyridin-6-yl]benzamide], the figure is no more than 1 nM; as for `COc1cc(C(=O)N2CC3(COC3)C2)ccc1Nc1nc2ccc(-c3ccc(C(=O)NCc4ccc(F)cc4)cc3)cn2n1` [Example 04.07, N-(4-fluorobenzyl)-4-(2-{[2-methoxy-4-(2-oxa-6-azaspiro[3.3]hept-6-ylcarbonyl)phenyl]amino}[,2]triazolo[1,5-a]pyridin-6-yl)benzamide], no more than 1 nM. As for `COc1cc(C(=O)N2CC(O)C2)ccc1Nc1nc2ccc(-c3ccc(C(=O)NCc4ccc(F)cc4)cc3)cn2n1` [Example 04.08, N-(4-fluorobenzyl)-4-[2-({4-[(3-hydroxyazetidin-1-yl)carbonyl]-2-methoxyphenyl}amino)[,2]-triazolo[1,5-a]pyridin-6-yl]benzamide], the figure is no more than 1 nM; as for `COc1cc(C(=O)N2CCS(=O)(=O)CC2)ccc1Nc1nc2ccc(-c3ccc(C(=O)NCc4ccc(F)cc4)cc3)cn2n1` [Example 04.09, 4-[2-({4-[(1,1-dioxidothiomorpholin-4-yl)carbonyl]-2-methoxyphenyl}amino)[,2]triazolo[1,5-a]pyridin-6-yl]-N-(4-fluorobenzyl)benzamide], no more than 1 nM. `COc1cc(C(=O)N2CCC(O)CC2)ccc1Nc1nc2ccc(-c3ccc(C(=O)NCc4ccc(F)cc4)cc3)cn2n1` [Example 04.10, N-(4-fluorobenzyl)-4-[2-({4-[(4-hydroxypiperidin-1-yl)carbonyl]-2-methoxyphenyl}amino)[,2]triazolo[1,5-a]pyridin-6-yl]benzamide]: the concentration for half-maximal inhibition (IC50) was no more than 1 nM. For `COc1cc(C(=O)NC2COC2)ccc1Nc1nc2ccc(-c3ccc(C(=O)NCc4ccc(F)cc4)cc3)cn2n1` [Example 04.11, 4-[(6-{4-[(4-fluorobenzyl)carbamoyl]phenyl}[,2]triazolo[1,5-a]pyridin-2-yl)amino]-3-methoxy-N-(oxetan-3-yl)benzamide] the value was no more than 1 nM.

With `CCOc1cc(C(=O)N2CC3(COC3)C2)ccc1Nc1nc2ccc(-c3ccc(C(=O)NCc4ccc(F)cc4)cc3)cn2n1` [Example 04.12, 4-(2-{[2-ethoxy-4-(2-oxa-6-azaspiro[3.3]hept-6-ylcarbonyl)phenyl]amino}[,2]-triazolo[1,5-a]pyridin-6-yl)-N-(4-fluorobenzyl)benzamide], the IC50 was no more than 1 nM. In the case of `CCOc1cc(C(=O)N2CCN(C(C)=O)CC2)ccc1Nc1nc2ccc(-c3ccc(C(=O)NCc4ccc(F)cc4)cc3)cn2n1` [Example 04.13, 4-[2-({4-[(4-acetylpiperazin-1-yl)carbonyl]-2-ethoxyphenyl}amino)[,2]triazolo[1,5-a]pyridin-6-yl]-N-(4-fluorobenzyl)benzamide], the IC50 was no more than 1 nM. As for `CCOc1cc(C(=O)N2CC(O)C2)ccc1Nc1nc2ccc(-c3ccc(C(=O)NCc4ccc(F)cc4)cc3)cn2n1` [Example 04.14, 4-[2-({2-ethoxy-4-[(3-hydroxyazetidin-1-yl)carbonyl]phenyl}amino)[,2]triazolo[1,5-a]pyridin-6-yl]-N-(4-fluorobenzyl)benzamide], the figure is no more than 1 nM. As for `O=C(NCc1ccc(F)cc1)c1ccc(-c2ccc3nc(Nc4ccc(C(=O)N5CC6(COC6)C5)cc4OCC(F)(F)F)nn3c2)cc1` [Example 04.15, N-(4-fluorobenzyl)-4-(2-{[4-(2-oxa-6-azaspiro[3.3]hept-6-ylcarbonyl)-2-(2,2,2-trifluoroethoxy)phenyl]amino}[,2]-triazolo[1,5-a]pyridin-6-yl)benzamide], the figure is no more than 1 nM; as for `O=C(NCc1ccc(F)cc1)c1ccc(-c2ccc3nc(Nc4ccc(C(=O)N5CC(O)C5)cc4OCC(F)(F)F)nn3c2)cc1` [Example 04.16, N-(4-fluorobenzyl)-4-[2-({4-[(3-hydroxyazetidin-1-yl)carbonyl]-2-(2,2,2-trifluoroethoxy)phenyl}amino)[,2]triazolo[1,5-a]pyridin-6-yl]benzamide], no more than 1 nM; as for `O=C(NCc1ccc(F)cc1)c1ccc(-c2ccc3nc(Nc4ccc(C(=O)N5CCOCC5)cc4OCC(F)(F)F)nn3c2)cc1` [Example 04.17, N-(4-fluorobenzyl)-4-(2-{[4-(morpholin-4-ylcarbonyl)-2-(2,2,2-trifluoroethoxy)phenyl]amino}[,2]-triazolo[1,5-a]pyridin-6-yl)benzamide], no more than 1 nM.

With `COc1cc(N2CCN(C)CC2)ccc1Nc1nc2ccc(-c3ccc(C(=O)NCc4ccc(F)cc4)cc3)cn2n1` [Example 04.18, N-(4-fluorobenzyl)-4-(2-{[2-methoxy-4-(4-methylpiperazin-1-yl)phenyl]amino}[,2]triazolo[1,5-a]pyridin-6-yl)benzamide], the IC50 is no more than 1 nM. As for `COc1cc(N2CCN(C(C)(C)C)CC2)ccc1Nc1nc2ccc(-c3ccc(C(=O)NCc4ccc(F)cc4)cc3)cn2n1` [Example 04.19, 4-(2-{[4-(4-tert-butylpiperazin-1-yl)-2-methoxyphenyl]amino}[,2]triazolo[1,5-a]pyridin-6-yl)-N-(4-fluorobenzyl)benzamide], the figure is no more than 1 nM; as for `O=C(NCc1ccc(F)cc1)c1ccc(-c2ccc3nc(Nc4ccc(C(=O)N5CC6(COC6)C5)cc4F)nn3c2)cc1` [Example 04.20, N-(4-fluorobenzyl)-4-(2-{[2-fluoro-4-(2-oxa-6-azaspiro[3.3]hept-6-ylcarbonyl)phenyl]amino}[,2]triazolo[1,5-a]pyridin-6-yl)benzamide], no more than 1 nM. As to `O=C(NCc1ccc(F)cc1)c1ccc(-c2ccc3nc(Nc4ccc(C(=O)N5CCOCC5)cc4F)nn3c2)cc1` [Example 04.21, N-(4-fluorobenzyl)-4-(2-{[2-fluoro-4-(morpholin-4-ylcarbonyl)phenyl]amino}[,2]-triazolo[1,5-a]pyridin-6-yl)benzamide], the IC50 is no more than 1 nM.

Take `O=C(NCc1ccc(F)cc1)c1ccc(-c2ccc3nc(Nc4ccc(C(=O)N5CCOCC5)cc4OCC(F)F)nn3c2)cc1` [Example 04.22, 4-(2-{[2-(2,2-difluoroethoxy)-4-(morpholin-4-ylcarbonyl)phenyl]amino}[,2]-triazolo[1,5-a]pyridin-6-yl)-N-(4-fluorobenzyl)benzamide]: the concentration for half-maximal inhibition (IC50) was no more than 1 nM.

Take `O=C(NCc1ccc(F)cc1)c1ccc(-c2ccc3nc(Nc4ccc(C(=O)N5CCOCC5)cc4C(F)(F)F)nn3c2)cc1` [Example 04.23, N-(4-fluorobenzyl)-4-(2-{[4-(morpholin-4-ylcarbonyl)-2-(trifluoromethyl)phenyl]amino}[,2]triazolo[1,5-a]pyridin-6-yl)benzamide]: the IC50 is no more than 1 nM.

For the origin of these results see US9555022B2, “Substituted triazolopyridines” (Bayer Intellectual Property GmbH, priority 2010, dated 2017).
